Data set [1] has as its system NRF2. The experiment in a line: HEK cell CYP450-dependent versus -independent NRF2 stabilization assay. The following applies: for NRF2 protein level in noninduced cells: HEK293/CYP cells without Dox; for NRF2 protein level in cells expressing other CYP isoforms: HEK293 cells expressing the other 7 CYP isoforms; for NRF2 activation with and without CYP450 expression: HEK-CYP cell lines, [− Dox] and [+ Dox]; for NRF2 activation: HEK Cyp3A4 and parental cell lines, up to 90 µM. It counts as cell-based, human.

Data set [2] has as its system rat liver. Briefly: BA-LRA score calculated from Open TG-GATEs Affymetrix GeneChip data. It counts as in vivo. The following applies: 600 mkd, 24 h, Affymetrix platform; ref Igarashi et al., 2015.
Data set [3] concerns NRF2/Keap1 and NRF1 coregulated gene network in rat liver. The following applies: for BA-LRA score / BA-LRA outcome, day 1 single dose study: rat; for maximum daily dose (boundary) predicted from BA-LRA score: clinical daily dose; for rat BA-LRA result: in vivo rat liver, threshold 0.22; for BA-LRA outcome, day 1 single dose study: day 1 single dose sample collection.
The subject of data set [4] is rat. Briefly: Histopathology, clinical chemistry and tolerability in short-term rat studies. The class given is in vivo. The following applies: oral gavage, high dose 500–750 mkd.
In data set [5] the test system is human hepatocytes. The experiment in a line: Covalent protein binding. It counts as in vitro ADME. The settings on record: radiolabeled drug.
Data set [6] concerns the target Cyp3A4 (Homo sapiens, UniProt P08684, DEL224-224/T224I/V225I). The experiment in a line: Cyp3A4 degradation in HEK Cyp3A4 cell line. It counts as cell-based. The following applies: up to 90 µM.
The test system of data set [7] is rat hepatocyte micropatterned coculture model (HepatoPac). The experiment in a line: In vitro BA-LRA in rat HepatoPac. The following applies: 9 days, at 50 µM. The class given is cell-based.
Data set [8] has as its system human HepatoPac. Briefly: In vitro BA-LRA in human HepatoPac. It counts as cell-based. The settings on record: at 50 µM.
The test system of data set [9] is rat HepatoPac. The experiment in a line: Urea synthesis in rat HepatoPac cultures. The class given is cell-based. The following applies: 9 days.
For data set [10], the system named is human HepatoPac. The experiment in a line: Urea synthesis in human HepatoPac cultures. It counts as cell-based. The settings on record: 9 days of exposure.
The test system of data set [11] is bile salt export pump (BSEP). The experiment in a line: Bile salt export pump. It counts as biochemical. The settings on record: modeling a dose of 280 mg; ref Hafey et al., unpublished data.
Data set [12] concerns rat. The experiment in a line: 6-month rat toxicology study. It counts as in vivo. The following applies: 6 months, highest dose tested.
Data set [13] relates to NHP. Briefly: 9-month NHP toxicology study. The class given is in vivo. The following applies: 9 months, highest dose tested.
In data set [14] the test system is Mouse. Briefly: 6-month mouse toxicology study. It counts as in vivo. The settings on record: 6 months, highest dose tested.
Data set [15] deals with human HepatoPac. The settings on record: ref Hafey et al., unpublished data, cited from earlier work.
The subject of data set [16] is BSEP. The settings on record: siRNA BSEP KD rat; ref Li et al., 2019; cited from earlier work.
The subject of data set [17] is HepG2. The settings on record: 24 h, HepG2 glucose-galactose shift; ref Xu et al., 2019; cited from earlier work.
Data set [18] deals with patients. The settings on record: ref Hargreaves and Olesen, 2019, cited from earlier work.
Data set [19] is described as follows: Biliary excretion. The following applies: human HepatoPac cultures, plasma or biological fluid. It counts as cell-based.
The test system of data set [20] is Dog. The experiment in a line: 1-month dog toxicology study. It counts as in vivo. The settings on record: high dose with excessive body weight loss.
Data set [21] can be described thus: Clinical studies: liver safety and exposure. The settings on record: human, in vivo, 900 mg.

≈ marks a conversion by molar mass, not a printed value. Entries after “also recorded” stand apart in the source; their conditions may differ. Like-named read-outs stand apart in the source and are kept apart here.

With `CC(=O)Nc1ccc(O)cc1` [Acetaminophen], the “NRF2 protein level in noninduced cells” value in data set [1] (6 h) is “not apparent”. Also, the “NRF2 protein level in cells expressing other CYP isoforms” value in data set [1] is given as “not apparent”. The “BA-LRA score calculated from TG-GATEs data” value in [2] was 0.32. In data set [3] (at 24 h (Figs. 2 and 3)), this compound returned a BA-LRA score of 0.54.

Turning to `Clc1ccccc1CN1CCc2sccc2C1` [Ticlopidine], in [1] (6 h), the “NRF2 protein level in noninduced cells” value was “not in noninduced cells”. Besides, the “NRF2 protein level in cells expressing other CYP isoforms” value in [1] is reported as “no effects on the NRF2 protein level”. In addition, the “concentration at which NRF2 activation begins” value in [1] (induced [+Dox] CYP2C9 expressing HEK293 cells, 6 h) is listed as “approximately 25 µM”.

As for `Clc1ccccc1C(c1ccccc1)(c1ccccc1)n1ccnc1` [Clotrimazole], the “tolerability of high repeat daily doses” value in data set [4] is on record as “not tolerated”.

For the compound `CNS(=O)(=O)Cc1ccc2[nH]cc(CCN(C)C)c2c1` [Sumatriptan], the “covalent protein binding in human hepatocytes” value (shortened to “covalent protein binding”) in [5] is “high CPB”.

Take `CC1(C)CC[C@]2(C(=O)O)CC[C@]3(C)[C@H](C(=O)C=C4[C@@]5(C)C=C(C#N)C(=O)C(C)(C)[C@@H]5CC[C@]43C)[C@@H]2C1` [Bardoxolone]: the “NRF2 activation with and without CYP450 expression” value in [1] is “induced NRF2 activation in a similar fashion under both [− Dox] and [+ Dox] conditions”.

For `O=C(N[C@@H]1CC[C@@H](c2cccc(F)c2F)CN(CC(F)(F)F)C1=O)N1CCC(n2c(=O)[nH]c3ncccc32)CC1` [Telcagepant], the “tolerability of high repeat daily doses” value in data set [4] is reported as “poorly tolerated”. Also, the “covalent protein binding” value in data set [5] is recorded as “high covalent binding”. In data set [1], the NRF2 activation result is “no effect was seen”. Moreover, the Cyp3A4 degradation result in data set [6] is “no effect was seen”. In addition, the “BA-LRA (in vitro)” value in data set [7] is recorded as “well exceeding the threshold of the assay”; in data set [7] (listed as MK-0974/Telcagepant), more than 0.2. Besides, the “in vitro BA-LRA transcriptional response to CRM responsive genes” value in data set [8] is “well exceeding the threshold of the assay”. In addition, the figures for the “urea (mito fx) / urea synthesis” value in data set [9] and in data set [9] (listed as MK-0974/Telcagepant) were “no inhibition of urea synthesis” and “no effect on urea to 100 µM”, respectively. The urea synthesis result in [10] is reported as “no inhibition of urea synthesis”. The “exposure multiple of BSEP IC50 above calculated free unbound liver inlet Cmax” value in data set [11] was 17.5 fold. In addition, the “Liver Findings” value in data set [12], in data set [13] and in [14] was “No liver safety signal at Highest Dose tested” throughout. In addition, the “maximum daily dose (boundary) predicted from BA-LRA score” value in [3] is on record as less than 600 mg. In addition, the BA-LRA score in data set [3] (400 mkd × 4 days, peak score) was 0.30. In addition, the “Biliary Excretion Index IC50” value in data set [15] is on record as 16 µM. Further, the “synergy expected for a BSEP inhibitor” value in data set [16] is “no evidence for synergy”. For the same compound, the mitochondrial toxicity result in data set [17] is “unlikely mechanism of concern”.

Turning to `C[C@@H]1[C@H](c2ccccc2)C[C@H](NC(=O)c2cnc3c(c2)C[C@@]2(C3)C(=O)Nc3ncccc32)C(=O)N1CC(F)(F)F` [Ubrogepant], the “clinical liver safety profile” value in data set [18] (clinical trials) is listed as “superior clinical liver safety profile”.

`CN1CCN(C2=Nc3cc(Cl)ccc3Nc3ccccc32)CC1` [Clozapine]: in [3], the “rat BA-LRA result” value is recorded as “significant BA-LRA signal” and the “BA-LRA outcome, day 1 single dose study” value is listed as “BA-LRA positive”.

As for `Cc1cc2c(s1)Nc1ccccc1N=C2N1CCN(C)CC1` [Olanzapine], in data set [4], the “tolerability of high repeat daily doses” value is on record as “not tolerated”. Further, the “BA-LRA outcome, day 1 single dose study” value in data set [3] is recorded as “InsfT”.

For the compound `COc1ccc2[nH]c([S+]([O-])Cc3ncc(C)c(OC)c3C)nc2c1` (stereo not drawn) [Omeprazole], the “NRF2 activation with and without CYP450 expression” value in [1] is given as “gave similar results”.

Take `C[S+]([O-])CCCCN=C=S` (stereo not drawn) [Sulforaphane, sulforaphane]: the “NRF2 activation with and without CYP450 expression” value in data set [1] is “gave similar results”.

With `C/N=C(\S)NCCSCc1[nH]cnc1C` [Metiamide], the “rat BA-LRA result” value in [3] is given as “did not show a significant rat liver BA-LRA signal”.

With `O=C(CN1C(=O)C2(CCCC2)NC[C@H]1c1cc(F)cc(F)c1)Nc1ccc2c(c1)C[C@@]1(C2)C(=O)Nc2ncccc21` [MK-3207], in data set [1], the NRF2 activation entry was “no CYP-dependent effect on NRF2 activation”. The Cyp3A4 degradation entry in [6] is recorded as “clear dose-dependent effect on Cyp3A4 degradation”. For the same compound, the “urea (mito fx) / urea synthesis” value in data set [9] was “lack of urea synthesis inhibition; also recorded: no effect on urea to 80 µM”. Further, in data set [10], the urea synthesis result is “lack of urea synthesis inhibition”. In data set [19], this compound returned a solubility of 50 µM (≈ 27.9 µg/mL). Further, the “Liver Findings” value was “No liver safety signal at Highest Dose tested” in data set [12], “No liver safety signal at Highest Dose tested” in [13], “No liver safety signal at Highest Dose tested” in data set [14] and “Slight periportal vacuolation” in [20]. In data set [21], this compound gave an AUC of 60 µM·h. In addition, in data set [3], the “maximum daily dose (boundary) predicted from BA-LRA score” value is recorded as 300 mg. The compound further returned a BA-LRA score in data set [3] (600 mkd × 4-day, median signature score) of 0.34. Moreover, the “biliary excretion of taurocholic acid” value in [15] (50 µM) is reported as “no significant impact”. For the same compound, the mitochondrial toxicity entry in [17] is listed as “No evidence for mitochondrial toxicity”. In data set [18] (Phase 2, 2 weeks, daily doses ≤ 100 mg (2/197)), the “incidence of subjects with ALT rises > 3-fold ULN” value was 1%. For the same compound, the “patients with > 20-fold ALT rises” value in [18] (among the 5 patients dosed above 500 mg daily) is reported as 3.

Turning to `Nc1c2c(nc3ccccc13)CCCC2` [Tacrine], in [4], the “tolerability of high repeat daily doses” value is listed as “not tolerated”.

On to `Cc1c(-c2cnccn2)ssc1=S` [Oltipraz, oltipraz], for which, in data set [1], the “NRF2 activation with and without CYP450 expression” value is reported as “gave similar results”.

On to `CN/C(=N/CCSCc1nc[nH]c1C)NC#N` [Cimetidine], for which, in [5], the “covalent protein binding” value is listed as “high CPB”.

On to `Cc1cnc(NC(=O)C2=C(O)c3ccccc3S(=O)(=O)N2C)s1` [Meloxicam], for which, in data set [4], the “tolerability of high repeat daily doses” value is “not tolerated”.

Values taken from paper PMC7553701 (Toxicological Sciences, 2020).
